Experimental findings from publication PMC6929706, “In vivo alpha-V beta-3 integrin expression in human aortic atherosclerosis” (Heart, 2019) are described below.

Like-named read-outs stand apart in the source and are kept apart here.

The target of data set [1] is aortic atheroma (αvβ3 integrin) (Homo sapiens, UniProt P05106+P06756).
Method: (§1) All patients in the imaging cohort underwent PET-CT imaging of the thorax with a hybrid scanner (Biograph mCT, Siemens Medical Systems, Erlangen, Germany) at the Clinical Research Imaging Centre, University of Edinburgh. Subjects were administered a target dose of 230 MBq 18F-fluciclatide. An attenuation correction CT scan (non-enhanced 120 kV and 50 mA, 3 mm slices) was performed prior to PET acquisition. To define tracer pharmacodynamics and the optimum timing of scanning, dynamic PET imaging of the thorax was performed in the initial 20 patients in three-dimensional (3-D) mode using a single bed position for 70 min.
Kinetic analysis was performed on the dynamic PET studies to investigate the pharmacodynamics of 18F-fluciclatide uptake within atheroma. […] In all patients, static electrocardiogram-gated PET images were reconstructed in diastole (40–70 min postinjection, 50%–75% of the R-R interval, Ultra-HD, 2 iterations, 21 subsets, zoom ×2, 200 pixels). Images were analysed by experienced observers blinded to the demographic data (WJ, AV) using an OsiriX workstation (OsiriX V.6.0 64-bit; OsiriX Imaging Software, Geneva, Switzerland). PET images were fused with the attenuation correction CT, and regions of interest drawn around the thoracic aorta on serial axial slices just beyond the discernible adventitial border. Aortic uptake was assessed in three regions: the ascending thoracic aorta (from the level of mid-right pulmonary artery up to the last slice where the aorta maintained its circular cross-sectional appearance), the descending thoracic aorta (the region extending from the tip of the diaphragm up to the last circular slice) and the aortic arch (the region of the aorta connecting the ascending and descending aorta). Within these regions, mean and maximum tracer activities were measured using standard uptake values (SUV; the decay corrected tissue concentration of the tracer divided by the injected dose per body weight, kBq/mL) and corrected for mean radiotracer blood pool activity to provide a mean of the TBRmax (mean TBRmax).[5 19 20] […]
For data set [2], the target named is αvβ3 integrin in thoracic aortic atheroma (Homo sapiens, UniProt P05106+P06756).
Method: as §1
Kinetic analysis was performed on the dynamic PET studies to investigate the pharmacodynamics of 18F-fluciclatide uptake within atheroma. […] In all patients, static electrocardiogram-gated PET images were reconstructed in diastole (40–70 min postinjection, 50%–75% of the R-R interval, Ultra-HD, 2 iterations, 21 subsets, zoom ×2, 200 pixels). […] PET images were fused with the attenuation correction CT, and regions of interest drawn around the thoracic aorta on serial axial slices just beyond the discernible adventitial border. Aortic uptake was assessed in three regions: the ascending thoracic aorta (from the level of mid-right pulmonary artery up to the last slice where the aorta maintained its circular cross-sectional appearance), the descending thoracic aorta (the region extending from the tip of the diaphragm up to the last circular slice) and the aortic arch (the region of the aorta connecting the ascending and descending aorta). Within these regions, mean and maximum tracer activities were measured using standard uptake values (SUV; the decay corrected tissue concentration of the tracer divided by the injected dose per body weight, kBq/mL) and corrected for mean radiotracer blood pool activity to provide a mean of the TBRmax (mean TBRmax).[5 19 20] […] In a substudy of 10 randomly selected subjects, images were assessed independently by two experienced observers and the interobserver reproducibility of 18F-fluciclatide SUV and TBR measurements assessed.
Continuous data were tested for normality visually and with the D’Agostino-Pearson omnibus test. Continuous data were presented as median (IQR) and compared using Pearson’s or Spearman’s correlation or Wilcoxon signed-rank test as appropriate.
Details of data set [3]: species or system human. The conditions noted are these: in vivo. From the text: A total of 46 subjects underwent PET imaging with CT angiography (age 66±10 years, 74% male; table 1) following injection of 229 (IQR 217–237) […] 18F-fluciclatide. Of the 46 subjects recruited, 19 had suffered a recent MI (unstable cohort), and 27 had imaging evidence of aortic atherosclerosis on CT but no recent cardiovascular events (stable cohort: 6 with stable angina and 21 with subclinical disease who were asymptomatic with no prior cardiovascular events). […] The groups were well matched for gender (p=0.97) and body mass index (p=0.39), and were both characterised by high prevalence of atherosclerotic risk factors, with more smokers in the unstable group (p<0.001) and more patients with hypertension in the stable group (p=0.02).

Data set [4] addresses T1, αvβ3 integrin receptors (Homo sapiens, UniProt P05106+P06756).
T1 construct: from tissue; host or cells: human carotid endarterectomy specimens (frozen sections)
Nature of the data set: 18F-fluciclatide autoradiography of carotid endarterectomy sections. It is filed as binding. The procedure:
Carotid endarterectomy specimens (online supplementary data) were fresh frozen and sectioned in cryosection medium. Both atheromatous and non-atheromatous segments were fixed, stained with H&E and examined by immunohistochemistry for smooth muscle actin, CD31, CD68 and αvβ3 integrin receptor expression before digital image capture (Axioscan .Z1, Zeiss, UK). Image analysis was performed on ImageJ32 software (National Institutes of Health, Bethesda, Maryland, USA). Staining was expressed as a percentage of the total plaque area and with an object size set threshold applied at 20×10 pixels, to limit counting to cell-sized objects. The density of cell staining in the endarterectomy tissue was expressed as cells per mm^2.[18]
Autoradiography was performed to identify the precise localisation of 18F-fluciclatide binding in atherosclerotic tissue. Carotid sections were bathed in a solution of 18F-fluciclatide (1 kBq/mL) for 60 min and rinsed with phosphate buffer solution. To rule out non-specific radiotracer uptake, an un-labelled highly concentrated solution of fluciclatide was added to bind competitively with the αvβ3 integrin receptors. 18F-Fluciclatide binding was imaged using a FujiFilm FLA-5100 Fluorescent Image Analyser (Raytek Scientific, Sheffield, UK). […]
antibody, clone LM609 (Millipore) for 30 min at room temperature. After washing, the sections were incubated with Envision Flex (DAKO, K5007) for 30 min at room temperature, followed by incubation with diaminobenzamine (Sigma) for 10 min. The slides were finally counterstained with hematoxylin and digitally imaged (Axioscan.Z1, Zeiss, UK).
Clinical PET systems have limited resolution. To gain more detailed information about the precise localization of 18F-fluciclatide binding in atherosclerotic tissue, we undertook autoradiography. The 20 μm frozen sections adjacent to those used for immunohistochemical analysis were warmed to room-temperature and bathed in a solution of 18F-fluciclatide at a concentration close to in vivo imaging concentrations (1 kBq/mL) for 60 minutes and then rinsed with phosphate buffer solution. An unlabeled highly concentrated solution of fluciclatide was added to selected slides in order to competitively bind to αvβ3 to assess for non-specific tracer uptake. A freshly blanked phosphor screen was then placed over the slides and an overnight exposure undertaken. The screen was read using a FujiFilm FLA-5100 Fluorescent Image Analyser (Raytek Scientific Limited, Sheffield, UK). Sections were then manually registered and examined for co-localization with histological markers of atherosclerotic disease

T1 sequence (P06756 31-889 limits assumed): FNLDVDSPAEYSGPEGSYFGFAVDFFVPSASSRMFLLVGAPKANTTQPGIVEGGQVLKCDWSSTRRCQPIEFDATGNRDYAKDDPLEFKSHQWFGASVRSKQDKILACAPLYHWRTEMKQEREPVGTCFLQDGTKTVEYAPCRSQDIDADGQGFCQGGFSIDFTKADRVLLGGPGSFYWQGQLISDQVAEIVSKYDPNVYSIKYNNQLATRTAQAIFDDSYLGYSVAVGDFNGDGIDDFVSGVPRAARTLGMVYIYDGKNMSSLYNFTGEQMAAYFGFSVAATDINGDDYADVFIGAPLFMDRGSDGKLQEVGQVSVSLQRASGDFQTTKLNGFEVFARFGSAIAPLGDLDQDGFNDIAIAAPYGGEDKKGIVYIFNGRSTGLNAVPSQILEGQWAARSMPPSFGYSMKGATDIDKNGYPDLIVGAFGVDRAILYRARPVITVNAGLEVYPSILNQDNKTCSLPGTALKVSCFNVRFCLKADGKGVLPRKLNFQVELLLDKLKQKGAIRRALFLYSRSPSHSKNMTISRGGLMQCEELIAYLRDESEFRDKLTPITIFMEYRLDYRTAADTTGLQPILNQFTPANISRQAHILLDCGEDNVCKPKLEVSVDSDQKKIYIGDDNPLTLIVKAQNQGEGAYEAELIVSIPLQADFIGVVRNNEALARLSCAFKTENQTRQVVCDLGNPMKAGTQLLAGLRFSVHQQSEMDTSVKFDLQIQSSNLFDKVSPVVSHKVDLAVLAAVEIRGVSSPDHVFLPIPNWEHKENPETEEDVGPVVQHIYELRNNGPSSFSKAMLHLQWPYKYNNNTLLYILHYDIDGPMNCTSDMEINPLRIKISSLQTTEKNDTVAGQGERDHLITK
T1 sequence (P06756 891-1048 partner limits assumed): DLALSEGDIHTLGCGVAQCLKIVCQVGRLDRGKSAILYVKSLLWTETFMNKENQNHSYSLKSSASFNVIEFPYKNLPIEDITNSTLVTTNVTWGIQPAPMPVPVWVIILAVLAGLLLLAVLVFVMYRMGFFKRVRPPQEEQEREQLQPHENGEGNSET
T1 sequence (P05106 27-788): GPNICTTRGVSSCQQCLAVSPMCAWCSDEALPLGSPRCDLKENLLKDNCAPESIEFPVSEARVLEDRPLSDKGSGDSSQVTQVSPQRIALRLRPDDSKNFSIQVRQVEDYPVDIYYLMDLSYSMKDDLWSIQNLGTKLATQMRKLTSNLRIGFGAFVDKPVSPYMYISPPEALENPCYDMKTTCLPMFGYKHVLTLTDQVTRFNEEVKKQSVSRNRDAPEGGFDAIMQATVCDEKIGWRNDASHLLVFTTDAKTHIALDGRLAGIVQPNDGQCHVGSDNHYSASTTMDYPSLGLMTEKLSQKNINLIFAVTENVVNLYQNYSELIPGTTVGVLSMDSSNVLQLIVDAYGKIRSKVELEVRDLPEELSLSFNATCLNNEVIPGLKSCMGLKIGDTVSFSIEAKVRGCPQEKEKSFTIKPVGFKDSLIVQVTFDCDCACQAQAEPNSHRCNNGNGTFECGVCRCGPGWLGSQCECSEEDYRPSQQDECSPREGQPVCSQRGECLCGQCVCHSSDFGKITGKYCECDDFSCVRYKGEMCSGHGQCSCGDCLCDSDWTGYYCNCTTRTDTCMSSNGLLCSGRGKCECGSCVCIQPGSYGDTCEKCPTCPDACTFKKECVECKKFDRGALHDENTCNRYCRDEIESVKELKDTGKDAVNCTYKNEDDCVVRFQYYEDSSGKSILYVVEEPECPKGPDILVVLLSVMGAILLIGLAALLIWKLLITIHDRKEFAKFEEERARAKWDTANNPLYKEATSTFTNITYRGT
αvβ3 integrin in thoracic aortic atheroma, sequence (P06756 31-889 limits assumed): as the sequence (P06756 31-889 limits assumed) above
αvβ3 integrin in thoracic aortic atheroma, sequence (P06756 891-1048 partner limits assumed): as the sequence (P06756 891-1048 partner limits assumed) above
αvβ3 integrin in thoracic aortic atheroma, sequence (P05106 27-788): as the sequence (P05106 27-788) above
aortic atheroma (αvβ3 integrin), sequence (P06756 31-889 limits assumed): as the sequence (P06756 31-889 limits assumed) above
aortic atheroma (αvβ3 integrin), sequence (P06756 891-1048 partner limits assumed): as the sequence (P06756 891-1048 partner limits assumed) above
aortic atheroma (αvβ3 integrin), sequence (P05106 27-788): as the sequence (P05106 27-788) above

Take 18F-fluciclatide: the “Nature of ligand-receptor binding by Patlak modelling” value in data set [1] (2-tissue irreversible Patlak model, t* 20 min, over the selected acquisition time) is “irreversible ligand-receptor binding”. Moreover, the “Blood pool clearance half-life” value in data set [1] (human, in vivo, iv) is “about 10 min”. Moreover, the “Time at which activity within aortic atheroma reaches plateau” value in data set [1] (in vivo) lay within 40 to 70 min. Further, in data set [2] (40–70 min postinjection), the “TBRmax range in aortic atheroma” value was 1.08–1.68. In data set [2] (All patients, median (IQR)), the “Total aortic uptake (mean TBRmax), current smokers” value came out at 1.32; the “Total aortic uptake (mean TBRmax), not current smokers” value is 1.29 (1.19–1.39); the “Total aortic uptake (mean TBRmax), with established ischaemic heart disease” value is 1.34 (1.22–1.42); the “Total aortic uptake (mean TBRmax), with hypercholesterolaemia” value is listed as 1.34 (1.21–1.42). For the same substance, in data set [2] (All patients, median (IQR)), the “Total aortic uptake (mean TBRmax), with hypertension” value is reported as 1.33 (1.19–1.39); the “Total aortic uptake (mean TBRmax), without diabetes mellitus” value is on record as 1.29 (1.19–1.38); the “Total aortic uptake (mean TBRmax), without established ischaemic heart disease” value is recorded as 1.25 (1.19–1.35); the “Total aortic uptake (mean TBRmax), without hypercholesterolaemia” value was 1.27 (1.19–1.34). Besides, the “Total aortic uptake (mean TBRmax), without hypertension” value in data set [2] (All patients, median (IQR)) is listed as 1.29 (1.20–1.40). Moreover, in data set [2] (Stable cohort, median (IQR)), the “Total aortic uptake (mean TBRmax), with diabetes mellitus” value is recorded as 1.37 (1.28–1.58); the “Total aortic uptake (mean TBRmax), with established ischaemic heart disease” value is given as 1.37 (1.37–1.42); the “Total aortic uptake (mean TBRmax), with hypercholesterolaemia” value was 1.36; the “Total aortic uptake (mean TBRmax), with hypertension” value is given as 1.27 (1.21–1.38). In data set [2] (Stable cohort, median (IQR)), the “Total aortic uptake (mean TBRmax), without diabetes mellitus” value is listed as 1.29 (1.19–1.37) and the “Total aortic uptake (mean TBRmax), without hypertension” value is reported as 1.33 (1.19–1.38). In addition, the “Aortic Arch (mean TBRmax)” value in data set [2] (Unstable atherosclerosis (n=19, recent MI), median (IQR)) amounted to 1.29. Moreover, the “TBRmax on standard analysis, subjects without visible uptake on Patlak analysis” value in data set [2] (comparison p=0.08) turned out to be 1.19±0.03. The “TBRmax on standard analysis, subjects with uptake present on Patlak analysis” value in data set [2] (n=7) is on record as 1.32±0.05. Further, in data set [3], the “Adverse events following administration” value is listed as “No adverse events were reported” and the “Average total radiation dose per participant” value is recorded as 15 mSv. In addition, the “Non-specific binding on autoradiography” value in data set [4] (carotid atheroma, ex vivo) is “no evidence of non-specific binding”. Besides, in data set [4] (ex vivo autoradiography, 1 kBq/mL, 60 min), the “18F-fluciclatide uptake in regions of carotid endarterectomy specimen without visible atheroma” value is given as “did not demonstrate 18F-fluciclatide uptake”. Further, the “18F-fluciclatide binding in carotid plaque on autoradiography” value in data set [4] (ex vivo carotid sections bathed in 1 kBq/mL for 60 min, atheromatous regions) is recorded as “focal 18F-fluciclatide binding in regions of advanced atherosclerosis”.
For the substance fluciclatide [reference compound], the “Blocking of 18F-fluciclatide binding by un-labelled fluciclatide” value in data set [4] (un-labelled highly concentrated solution added to compete at αvβ3) is given as “effectively blocked”.
